By GI50 is commonly meant the concentration giving 50% growth inhibition. Low values mean greater sensitivity of the cells, high ones lower sensitivity of the cells.

The structures appear in SMILES notation. Read-outs that look alike come from different tables or passages of the source.

These results are taken from patent US9750759B2, “Antitumoral compounds” (priority 2008, dated 2017).

Experiment in all cases: cells
Common to all, as to assay type: cell-based

One assay has as its system A549. The conditions noted are these: Homo sapiens; for GI50: concentration that produces 50% growth inhibition; for IC (total growth inhibition): read-out: TGI. The text has this:
(§1) The aim of this assay is to evaluate the in vitro cytostatic (ability to delay or arrest tumor cell growth) or cytotoxic (ability to kill tumor cells) activity of the samples being tested.
(§2) A colorimetric type of assay, using sulforhodamine B (SRB) reaction has been adapted for a quantitative measurement of cell growth and viability (following the technique described by Skehan P et al. J. Natl. Cancer Inst. 1990, 82, 1107-1112).
(§3) This form of assay employs SBS-standard 96-well cell culture microplates (Faircloth et al. Methods in cell science, 1988, 11(4), 201-205; Mosmann et al, Journal of Immunological. Methods, 1983, 65(1-2), 55-63). All the cell lines used in this study, derived from different types of human cancer, were obtained from the American Type Culture Collection (ATCC).
(§4) Cells were maintained in Dulbecco's Modified Eagle Medium (DMEM) supplemented with 10% Fetal Bovine Serum (FBS), 2 mM L-glutamine, 100 U/mL penicillin and 100 U/mL streptomycin at 37° C., 5% CO2 and 98% humidity. For the experiments, cells were harvested from subconfluent cultures using trypsinization and resuspended in fresh medium before counting and plating.
(§5) Cells were seeded in 96 well microtiter plates at 5×10^3 cells per well in aliquots of 150 μL, and allowed to attach to the plate surface for 18 hours in drug free medium. One control (untreated) plate of each cell line was fixed (as described below) and used for time zero reference value. Afterwards, test samples were added to the cultures in ten serial dilutions, in aliquots of 50 μL, ranging from 10 to 0.00262 μg/mL. After 48 hours exposure, the antitumor effect was estimated by the SRB method: Briefly, cells were washed twice with PBS, fixed for 15 min in 1% glutaraldehyde solution, rinsed twice in PBS, and stained in 0.4% SRB solution for 30 min at room temperature. Cells were then rinsed several times with 1% acetic acid solution and air-dried. SRB was then extracted in 10 mM trizma base solution and the absorbance measured in an automated spectrophotometric plate reader at 490 nm. Cell survival was expressed as percentage of control cell growth. The final effect of the sample being tested was estimated by applying the NCI algorithm (Boyd M R and Paull K D. Drug Dev. Res. 1995, 34, 91-104).
(§6) Using the mean±SD of triplicate cultures, a dose-response curve was automatically generated using nonlinear regression analysis. Three reference parameters were calculated (NCI algorithm) by automatic interpolation: GI50=concentration that produces 50% growth inhibition; TGI=total growth inhibition (cytostatic effect) and LC50=concentration that produces 50% net cell killing (cytotoxic effect).

Another assay concerns MDA-MB-231. The following applies: Homo sapiens; for GI50: concentration that produces 50% growth inhibition; for IC (total growth inhibition): total growth inhibition (cytostatic effect), read-out: TGI.
Source text: as §1, §2, §3, §4, §5, §6

The test system of the next assay is HT29. The conditions noted are these: Homo sapiens; for GI50: concentration that produces 50% growth inhibition; for IC (total growth inhibition): total growth inhibition (cytostatic effect), read-out: TGI.
Source text: as §1, §2, §3, §4, §5, §6

Where [1] appears, read: A549, 48 hours exposure, concentration that produces 50% net cell killing, read-out: LC50 (the source's name).
[2] abbreviates: A549, 48 hours exposure, total growth inhibition (cytostatic effect).
Where [3] appears, read: MDA-MB-231, 48 hours exposure, concentration that produces 50% net cell killing, read-out: LC50 (the source's name).
[4] abbreviates: HT-29, HT29, 48 hours exposure, concentration that produces 50% net cell killing, read-out: LC50 (the source's name).
Where [5] appears, read: MDA-MB-231, 48 h, read-out: LC50.

`COC1=CC[C@@H]([C@@H](C)/C=C\C=C/C(=O)N[C@H](C(=O)N/C=C\C[C@H](C/C=C(\C)Cl)O[Si](C)(C)C(C)(C)C)C(C)(C)C)OC1=O` [Compound 67]: the GI50 in the assay on A549 (A549, 48 hours exposure) was 1570 nM; in the assay on MDA-MB-231 (MDA-MB-231, 48 hours exposure) it was 910 nM; in the assay with HT29 (HT-29, HT29, 48 hours exposure), 1880 nM. The CC50 came out at 4860 nM with A549 (setting [1]), 1210 nM in the assay on MDA-MB-231 (setting [3]) and 3140 nM in the assay on HT29 (setting [4]). Besides, the IC (total growth inhibition) in the assay with A549 (setting [2]) was 2.82 µM; in the assay with MDA-MB-231 (MDA-MB-231, 48 hours exposure), 1.04 µM; in the assay on HT29 (HT-29, HT29, 48 hours exposure) it was 2.35 µM.

As for `COC1=CC[C@@H]([C@@H](C)/C=C\C=C/C(=O)N[C@H](C(=O)N/C=C\C[C@@H](O)C/C=C(\C)Cl)C(C)(C)C)OC1=O` [Compound 68], the CC50 in the assay with A549 (A549, 48 h, read-out: LC50) is over 19100 nM; with MDA-MB-231 (setting [5]), 6500 nM; with HT29 (HT-29, 48 h, read-out: LC50), over 19100 nM. For the same compound, the GI50 was 1470 nM in the assay on A549 (A549, 48 hours exposure); 784 nM in the assay with MDA-MB-231 (MDA-MB-231, 48 hours exposure); 459 nM with HT29 (HT-29, HT29, 48 hours exposure). The IC (total growth inhibition) in the assay on A549 (setting [2]) stood at 4.21 µM; in the assay with MDA-MB-231 (MDA-MB-231, 48 hours exposure) it was 1.49 µM; in the assay on HT29 (HT-29, HT29, 48 hours exposure), 0.707 µM.

Consider `COC1=CC[C@@H]([C@@H](C)/C=C\C=C/C(=O)N[C@H](C(=O)N/C=C\C[C@H](C/C=C(\C)Cl)OC(N)=O)C(C)(C)C)OC1=O` [Compound 69], for which the CC50 in the assay on A549 (A549, 48 h, read-out: LC50) is over 17700 nM; in the assay on MDA-MB-231 (setting [5]), 8130 nM; in the assay with HT29 (HT-29, 48 h, read-out: LC50), over 17700 nM. Besides, the IC (total growth inhibition) is over 17.7 µM with A549 (A549, 48 h); 1.63 µM in the assay on MDA-MB-231 (MDA-MB-231, 48 hours exposure); 0.424 µM in the assay on HT29 (HT-29, HT29, 48 hours exposure). For the same compound, the GI50 in the assay with A549 (A549, 48 hours exposure) came out at 230 nM; in the assay on MDA-MB-231 (MDA-MB-231, 48 hours exposure) it was 336 nM; with HT29 (HT-29, HT29, 48 hours exposure) it was 173 nM.

Regarding `CC#CC[C@@H](C/C=C\NC(=O)[C@@H](NC(=O)\C=C/C=C\C(C)=C\[C@H](C)[C@@H]1CC=C(OC)C(=O)O1)C(C)(C)C)O[Si](c1ccccc1)(c1ccccc1)C(C)(C)C` [Compound 70], the 50% growth inhibitory concentration (GI50) in the assay with A549 (A549, 48 hours exposure) is 2090 nM; in the assay on MDA-MB-231 (MDA-MB-231, 48 hours exposure), 1700 nM; with HT29 (HT-29, HT29, 48 hours exposure) it was 1960 nM. Further, the CC50 was 3270 nM in the assay with A549 (setting [1]), 3530 nM with MDA-MB-231 (setting [3]) and 4050 nM with HT29 (setting [4]). In addition, the IC (total growth inhibition) in the assay on A549 (setting [2]) worked out at 2.61 µM; in the assay on MDA-MB-231 (MDA-MB-231, 48 hours exposure), 2.48 µM; in the assay with HT29 (HT-29, HT29, 48 hours exposure), 2.74 µM.

Take `CC#CC[C@H](O)C/C=C\NC(=O)[C@@H](NC(=O)\C=C/C=C\C(C)=C\[C@H](C)[C@@H]1CC=C(OC)C(=O)O1)C(C)(C)C` [Compound 71]: the CC50 is 8540 nM in the assay on A549 (A549, 48 h, read-out: LC50); over 19000 nM with MDA-MB-231 (setting [5]); over 19000 nM with HT29 (HT-29, 48 h, read-out: LC50). The GI50 was 266 nM in the assay with A549 (A549, 48 hours exposure); 209 nM in the assay on MDA-MB-231 (MDA-MB-231, 48 hours exposure); 58.9 nM with HT29 (HT-29, HT29, 48 hours exposure). Moreover, the IC (total growth inhibition) was 1.84 µM with A549 (setting [2]); 2.85 µM in the assay with MDA-MB-231 (MDA-MB-231, 48 hours exposure); 0.175 µM in the assay on HT29 (HT-29, HT29, 48 hours exposure).

`CC#CC[C@@H](C/C=C\NC(=O)[C@@H](NC(=O)\C=C/C=C\C(C)=C\[C@H](C)[C@@H]1CC=C(OC)C(=O)O1)C(C)(C)C)OC(N)=O` [Compound 72]: the CC50 with A549 (A549, 48 h, read-out: LC50) was over 176 nM; in the assay with MDA-MB-231 (setting [5]), over 176 nM; with HT29 (HT-29, 48 h, read-out: LC50), over 176 nM. The GI50 with A549 (A549, 48 hours exposure) stood at 0.176 nM; in the assay on MDA-MB-231 (MDA-MB-231, 48 hours exposure), 0.246 nM; in the assay with HT29 (HT-29, HT29, 48 hours exposure), 0.0579 nM. In addition, the IC (total growth inhibition) with A549 (setting [2]) amounted to 0.00281 µM; with MDA-MB-231 (MDA-MB-231, 48 hours exposure), 0.00193 µM; in the assay with HT29 (HT-29, HT29, 48 hours exposure) it was 0.000125 µM.

`COC1=CC[C@@H]([C@@H](C)/C=C(C)/C=C\C#CC(=O)NC(C(=O)N/C=C\C[C@H](C/C=C(\C)Cl)O[Si](c2ccccc2)(c2ccccc2)C(C)(C)C)C(C)(C)C)OC1=O` (stereo partly drawn) [Compound 78]: the GI50 in the assay with A549 (A549, 48 hours exposure) was over 12500 nM; in the assay on MDA-MB-231 (MDA-MB-231, 48 hours exposure) it was over 12500 nM; in the assay with HT29 (HT-29, HT29, 48 hours exposure) it was over 12500 nM. Moreover, the CC50 in the assay on A549 (setting [1]), with MDA-MB-231 (setting [3]) and in the assay with HT29 (setting [4]) was over 12500 nM throughout. For the same compound, the IC (total growth inhibition) is over 12.5 µM in the assay with A549 (setting [2]); over 12.5 µM in the assay with MDA-MB-231 (MDA-MB-231, 48 hours exposure); over 12.5 µM in the assay on HT29 (HT-29, HT29, 48 hours exposure).
